Assay [1] in a line: polymyxin sensitization in S. Typhimurium, mechanism study for PhoP regulon inhibitor project, Salmonella typhimurium, WT and phoP- strains, set 2 (AID 2816). As to conditions: S. Typhimurium polymyxin IC50 shift, OD600, 24 h, at 150 µM.
Assay [2] relates to S. Typhimurium polymyxin IC50 shift, OD600, 24 h. The assay is described as above.
[3] abbreviates: measured here: phoP- strain counter-screen shift.
Where [4] appears, read: measured here: wild-type strain IC50 shift, stronger effect = higher value.
The mark [5] stands for this setting: WT polymyxin IC50 at 150 uM, stronger effect = lower value.

The values below come from PubChem BioAssay AID2816 (Southern Research Specialized Biocontainment Screening …, 2010).

The source made the active and inactive calls.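 The calls were made as follows: active = compound-induced drop in polymyxin IC50 in wild-type bacteria exceeding double the drop in a mutant lacking PhoP; inactive = the rest.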

Consider `O=C1C2=C(Nc3ccccc3SC2c2ccc(I)cc2)c2ccccc21` (stereo not drawn), for which the polymyxin IC50 shift difference WT - phoP- in assay [1] (stronger effect = higher value) is 1.63 (inactive). In addition, the polymyxin IC50 shift turned out to be 1.03 in assay [1] (setting [3]) and 2.66 in assay [1] (setting [4]). The polymyxin IC50 in assay [2] (setting [5]) worked out at 2470 nM; in assay [2] (phoP- polymyxin IC50 at 150 uM), 2890 nM.

Take `COc1cccc(C2Sc3ccccc3NC3=C2C(=O)c2ccccc23)c1` (stereo not drawn): in assay [1] (stronger effect = higher value), the polymyxin IC50 shift difference WT - phoP- is -1.75 (inactive). For the same compound, the polymyxin IC50 shift in assay [1] (setting [3]) came to 5.35; in assay [1] (setting [4]), 3.6. The polymyxin IC50 in assay [2] (setting [5]) amounted to 2110 nM.

Regarding `CCn1cc(C(=O)O)c(=O)c2cc(F)c(N3CCN(C(=S)Nc4ccccc4C(F)(F)F)CC3)cc21`, the polymyxin IC50 shift difference WT - phoP- in assay [1] (stronger effect = higher value) was -3.38 (inactive). Also, the polymyxin IC50 shift in assay [1] (setting [3]) turned out to be 3.42; in assay [1] (setting [4]) it was 0.032. For the same compound, the polymyxin IC50 in assay [2] (setting [5]) stood at 2590 nM; in assay [2] (phoP- polymyxin IC50 at 150 uM) it was 2950 nM.

Turning to `O=C(Nc1ccc(Br)cc1)N1CCCN(Cc2ccccc2F)C1`, in assay [1] (stronger effect = higher value), the polymyxin IC50 shift difference WT - phoP- was -2.51 (inactive). The polymyxin IC50 shift in assay [1] (setting [3]) is 1.55; in assay [1] (setting [4]), -0.956. For the same compound, the polymyxin IC50 is 4820 nM in assay [2] (setting [5]) and 2620 nM in assay [2] (phoP- polymyxin IC50 at 150 uM).

Consider `O=C1C2=C(Nc3ccccc3SC2c2ccsc2)c2ccccc21` (stereo not drawn), for which, in assay [1] (stronger effect = higher value), the polymyxin IC50 shift difference WT - phoP- was 2.14 (inactive). Also, the polymyxin IC50 shift in assay [1] (setting [3]) is -0.359; in assay [1] (setting [4]), 1.78. The polymyxin IC50 in assay [2] (setting [5]) came out at 2670 nM; in assay [2] (phoP- polymyxin IC50 at 150 uM), 3000 nM.

Take `COc1ccc(CNC(=S)Nc2ccncc2)cc1`: the values for the polymyxin IC50 shift in assay [1] (setting [3]) and in assay [1] (setting [4]) were 1.46 and 10.1, respectively. In addition, the IC50 in assay [2] is 75000 nM. Also, the polymyxin IC50 in assay [2] (phoP- polymyxin IC50 at 150 uM) was 4420 nM.

In general, IC50 refers to the concentration needed to halve the response being measured.
